Measured values from US11623925B2, “Processes for preparing a diaminopyrimidine derivative or acid addition salt thereof” (YUHAN CORPORATION, priority 2018, dated 2023).
Where a name gives a salt, the structure may show the parent alone.

Experiments:
[1] = Stability tests: storage at 60° C. and 75% RH for 2 weeks, HPLC analysis; format: physicochemical; conditions: for change in the HPLC purity / change in the amount of deacetylated impurities: 2 weeks, in words
Description: (S)-N-(1-(2-((4-amino-3-nitrophenyl)amino)-6-propylpyrimidin-4-yl)pyrrolidin-3-yl) acetamide hydrochloride prepared according to WO 2012/115480 (Amorphous form, Test compound 1) and the crystalline form A of (S)-N-(1-(2-((4-amino-3-nitrophenyl)amino)-6-propylpyrimidin-4-yl)pyrrolidin-3-yl)acetamide hydrochloride prepared in Example 7 (Test compound 2) were stored under the conditions of 60° C. and 75% RH for 2 weeks. The amounts of each test compound and the deacetylated impurities were analyzed with HPLC so as to measure the respective HPLC purities.

[2] = Storage of the amorphous hydrochloride at room temperature; format: physicochemical; conditions: stored at room temperature; in words
Description: In addition, WO 2012/115480 has disclosed the step for converting the compound of Formula 1 to a hydrochloride thereof. The converting step comprises reacting the compound of Formula 1 with hydrochloric acid in ethyl acetate, stirring at room temperature for 1 hour, and then filtering the product. It has been found by the present inventors that the hydrochloride of the compound of Formula 1 obtained by said method is in the amorphous form and brings about the problem producing deacetylated impurities in high level when stored at room temperature.

SMILES	change in the HPLC purity [1]	change in the amount of deacetylated impurities [1]	HPLC purities, Compound ([1]; Storage time: 1 week) [%]	HPLC purities, Deacetylated impurities ([1]; Storage time: 1 week) [%]	HPLC purities, Compound ([1]; Storage time: 2 weeks) [%]	HPLC purities, Deacetylated impurities ([1]; Storage time: 2 weeks) [%]	HPLC purities, Compound ([1]; Storage time: Initial) [%]	HPLC purities, Deacetylated impurities ([1]; Storage time: Initial) [%]	deacetylated impurities produced on storage [2]
CCCc1cc(N2CC[C@H](NC(C)=O)C2)nc(Nc2ccc(N)c([N+](=O)[O-])c2)n1.Cl [Test compound 1, (S)-N-(1-(2-((4-amino-3-nitrophenyl)amino)-6-propylpyrimidin-4-yl)pyrrolidin-3-yl) acetamide hydrochloride]	marked decrease	marked increase	95.5	3.78	86.6	12.7	98.7	0.58	high level
CCCc1cc(N2CC[C@H](NC(C)=O)C2)nc(Nc2ccc(N)c([N+](=O)[O-])c2)n1 [Test compound 2, (S)-N-(1-(2-((4-amino-3-nitrophenyl)amino)-6-propylpyrimidin-4-yl)pyrrolidin-3-yl)acetamide hydrochloride]	no significant change	no significant change	99.6	0.07	99.6	0.07	99.6	0.08	
